Measurements as given in PubChem BioAssay (NCI).
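Step 1: Grow cells in 96-well plates. Step 2: Expose to compound for 48 hours at 5 concentrations. Step 3: Interpolate endpoints linearly; if unreached, use highest concentration. The concentration for 50% growth inhibition is given as GI50. TGI denotes the concentration required for complete inhibition of growth.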

How the values were obtained:
Experiment in all cases: NCI anticancer screen, dose series, 48 h; in the data active means GI50 below about 0.43 µM; inactive means the rest
UO-31 renal = tested on: UO-31 renal
UACC-62 melanoma = tested on: UACC-62 melanoma
KM12 colon = tested on: KM12 colon
SNB-19 CNS = tested on: SNB-19 CNS
OVCAR-8 ovarian = tested on: OVCAR-8 ovarian
DU-145 prostate = tested on: DU-145 prostate
HCT-15 colon = tested on: HCT-15 colon
UACC-257 melanoma = tested on: UACC-257 melanoma
SK-MEL-5 melanoma = tested on: SK-MEL-5 melanoma
HOP-92 NSCLC = tested on: HOP-92 NSCLC

O=C(Nc1c(Cl)cccc1Cl)Oc1cccc2cccnc12
9.72 µM: TGI (UACC-257 melanoma)
12.3 µM: TGI (SK-MEL-5 melanoma)
50 µM: TGI (OVCAR-8 ovarian)
inactive: GI50 (UO-31 renal) 2.74 µM | GI50 (UACC-62 melanoma) 3.04 µM | GI50 (KM12 colon) 4.69 µM | GI50 (SNB-19 CNS) 5.74 µM | GI50 (OVCAR-8 ovarian) 3.08 µM | GI50 (DU-145 prostate) 11.7 µM | GI50 (HCT-15 colon) 0.992 µM | GI50 (UACC-257 melanoma) 2.74 µM | GI50 (SK-MEL-5 melanoma) 3.39 µM
> 100 µM: TGI (SNB-19 CNS) | TGI (DU-145 prostate) | TGI (HCT-15 colon)
10 µM: TGI (UACC-62 melanoma)
70.4 µM: TGI (KM12 colon)
51.8 µM: TGI (UO-31 renal)

O=C1C2Cc3ccccc3CN2C(=O)N1CN1CCCCC1 (configuration not stated)
> 100 µM: TGI (UO-31 renal) | TGI (UACC-62 melanoma) | TGI (KM12 colon) | TGI (SNB-19 CNS) | TGI (OVCAR-8 ovarian) | TGI (HCT-15 colon) | TGI (SK-MEL-5 melanoma)

OCC1OC(NO)C(O)C(O)C1O (configuration not stated)
> 100 µM: TGI (HOP-92 NSCLC) | TGI (UACC-62 melanoma) | TGI (KM12 colon) | TGI (SNB-19 CNS) | TGI (OVCAR-8 ovarian) | TGI (HCT-15 colon) | TGI (UACC-257 melanoma) | TGI (SK-MEL-5 melanoma)

Cc1nc2cc3[nH]c4ccccc4c(=O)c3cc2s1
> 100 µM: TGI (HOP-92 NSCLC) | TGI (UO-31 renal) | TGI (UACC-62 melanoma) | TGI (KM12 colon) | TGI (SNB-19 CNS) | TGI (OVCAR-8 ovarian) | TGI (HCT-15 colon) | TGI (UACC-257 melanoma) | TGI (SK-MEL-5 melanoma)

O=S(=O)(O)c1ccc([Se][Se]c2ccc(S(=O)(=O)O)cc2)cc1
> 100 µM: TGI (HOP-92 NSCLC) | TGI (UO-31 renal) | TGI (UACC-62 melanoma) | TGI (KM12 colon) | TGI (SNB-19 CNS) | TGI (OVCAR-8 ovarian) | TGI (HCT-15 colon) | TGI (UACC-257 melanoma) | TGI (SK-MEL-5 melanoma)

CC1=NN(c2ccccc2)C(=O)C1N=Nc1ccc(Br)cc1C (configuration not stated)
> 100 µM: TGI (HOP-92 NSCLC) | TGI (UACC-62 melanoma) | TGI (KM12 colon) | TGI (SNB-19 CNS) | TGI (OVCAR-8 ovarian) | TGI (HCT-15 colon) | TGI (UACC-257 melanoma) | TGI (SK-MEL-5 melanoma)

CCCCCCCN(CCCCCCC)C(=N)c1ccc(OC)c2ccccc12
2.36 µM: TGI (UO-31 renal)
2.02 µM: TGI (HOP-92 NSCLC)
2.93 µM: TGI (SNB-19 CNS)
2.77 µM: TGI (UACC-62 melanoma)
3.01 µM: TGI (SK-MEL-5 melanoma)
inactive: GI50 (HOP-92 NSCLC) 0.603 µM | GI50 (UO-31 renal) 0.971 µM | GI50 (UACC-62 melanoma) 1.34 µM | GI50 (SNB-19 CNS) 1.38 µM | GI50 (OVCAR-8 ovarian) 1.41 µM | GI50 (DU-145 prostate) 1.38 µM | GI50 (SK-MEL-5 melanoma) 1.58 µM
3.04 µM: TGI (OVCAR-8 ovarian)
2.76 µM: TGI (DU-145 prostate)

O=C1C2=C(c3ccccc31)C(c1ccc([N+](=O)[O-])cc1)NC(=S)N2 (configuration not stated)
> 100 µM: TGI (HOP-92 NSCLC) | TGI (UO-31 renal) | TGI (UACC-62 melanoma) | TGI (KM12 colon) | TGI (SNB-19 CNS) | TGI (HCT-15 colon) | TGI (UACC-257 melanoma) | TGI (SK-MEL-5 melanoma)

Cc1c2cc[n+](C)cc2c(C)c2c1[nH]c1ccc(OC(C)(C)C)cc12
> 100 µM: TGI (HOP-92 NSCLC) | TGI (UO-31 renal) | TGI (UACC-62 melanoma) | TGI (KM12 colon) | TGI (OVCAR-8 ovarian) | TGI (HCT-15 colon) | TGI (UACC-257 melanoma) | TGI (SK-MEL-5 melanoma)

N#Cc1cc([N+](=O)[O-])ccc1NC(=O)C(=O)Nn1c(=S)[nH]c2ccccc2c1=O
> 100 µM: TGI (HOP-92 NSCLC) | TGI (UO-31 renal) | TGI (KM12 colon) | TGI (SNB-19 CNS) | TGI (OVCAR-8 ovarian) | TGI (HCT-15 colon) | TGI (UACC-257 melanoma) | TGI (SK-MEL-5 melanoma)

O=C(NNC(=O)/C(=C/c1cccc([N+](=O)[O-])c1)NC(=O)c1ccccc1)Nc1ccc(Cl)cc1
62.1 µM: TGI (OVCAR-8 ovarian)
24.7 µM: TGI (KM12 colon) | TGI (HCT-15 colon)
30.8 µM: TGI (SNB-19 CNS)
34.4 µM: TGI (UACC-257 melanoma)
27.3 µM: TGI (UO-31 renal)
30.3 µM: TGI (UACC-62 melanoma)
40.4 µM: TGI (HOP-92 NSCLC)
25.7 µM: TGI (SK-MEL-5 melanoma)

O=C1/C(=C/c2ccc(C(=O)O)cc2)CNC/C1=C\c1ccc(C(=O)O)cc1
> 100 µM: TGI (HOP-92 NSCLC) | TGI (UO-31 renal) | TGI (UACC-62 melanoma) | TGI (KM12 colon) | TGI (OVCAR-8 ovarian) | TGI (HCT-15 colon) | TGI (UACC-257 melanoma) | TGI (SK-MEL-5 melanoma)

CCCCCCCCCCCCCC(=O)OCC1OC(=O)C(O)C1O (configuration not stated)
> 100 µM: TGI (HOP-92 NSCLC) | TGI (UO-31 renal) | TGI (UACC-62 melanoma) | TGI (KM12 colon) | TGI (SNB-19 CNS) | TGI (OVCAR-8 ovarian) | TGI (UACC-257 melanoma) | TGI (SK-MEL-5 melanoma)

Clc1cc2ns[s+]c2cc1Cl
> 91.7 µM: TGI (UO-31 renal)
> 100 µM: TGI (HOP-92 NSCLC) | TGI (UACC-62 melanoma) | TGI (KM12 colon) | TGI (SNB-19 CNS) | TGI (OVCAR-8 ovarian) | TGI (HCT-15 colon) | TGI (UACC-257 melanoma)
> 52 µM: TGI (SK-MEL-5 melanoma)

CC(C)c1cccc(C(C)C)c1NC(=O)/C(Cc1nc2ccc(Cl)cc2[nH]c1=O)=N\NC(=O)C[N+](C)(C)C
> 100 µM: TGI (HOP-92 NSCLC) | TGI (UO-31 renal) | TGI (UACC-62 melanoma) | TGI (KM12 colon) | TGI (SNB-19 CNS) | TGI (OVCAR-8 ovarian) | TGI (UACC-257 melanoma) | TGI (SK-MEL-5 melanoma)

c1ccc2cc(Cn3c(-c4cccc5ccccc45)[n+](Cc4ccc5ccccc5c4)c4c5ccccc5c5ccccc5c43)ccc2c1
1.35 µM: TGI (UACC-62 melanoma)
1.62 µM: TGI (SNB-19 CNS)
1.88 µM: TGI (HCT-15 colon)
1.2 µM: TGI (KM12 colon)
1.68 µM: TGI (DU-145 prostate)
1.92 µM: TGI (OVCAR-8 ovarian)
active: GI50 (UACC-62 melanoma) 0.302 µM | GI50 (KM12 colon) 0.285 µM | GI50 (SNB-19 CNS) 0.318 µM | GI50 (OVCAR-8 ovarian) 0.332 µM | GI50 (DU-145 prostate) 0.413 µM | GI50 (HCT-15 colon) 0.398 µM | GI50 (SK-MEL-5 melanoma) 0.179 µM
0.338 µM: TGI (SK-MEL-5 melanoma)

O=S1c2ccccc2N=C(c2cccs2)CC1c1ccccc1O (configuration not stated)
> 100 µM: TGI (UO-31 renal) | TGI (UACC-62 melanoma) | TGI (KM12 colon) | TGI (SNB-19 CNS) | TGI (OVCAR-8 ovarian) | TGI (HCT-15 colon) | TGI (UACC-257 melanoma) | TGI (SK-MEL-5 melanoma)

CN1C(=O)CC(CC(=O)C2CCCCC2=O)CC1=O (configuration not stated)
> 100 µM: TGI (HOP-92 NSCLC) | TGI (UO-31 renal) | TGI (UACC-62 melanoma) | TGI (KM12 colon) | TGI (SNB-19 CNS) | TGI (OVCAR-8 ovarian) | TGI (UACC-257 melanoma)

C/C(COc1ccccc1)=N\NC(N)=S
> 100 µM: TGI (HOP-92 NSCLC) | TGI (UO-31 renal) | TGI (UACC-62 melanoma) | TGI (KM12 colon) | TGI (OVCAR-8 ovarian) | TGI (HCT-15 colon) | TGI (UACC-257 melanoma) | TGI (SK-MEL-5 melanoma)

CN(C)c1ccc(/C=C(\C#N)C(=O)c2ccccc2)cc1Br
> 100 µM: TGI (HOP-92 NSCLC) | TGI (UO-31 renal) | TGI (UACC-62 melanoma) | TGI (KM12 colon) | TGI (SNB-19 CNS) | TGI (OVCAR-8 ovarian) | TGI (UACC-257 melanoma) | TGI (SK-MEL-5 melanoma)

CCn1c(C)nc([N+](=O)[O-])c1Sc1ncc[nH]1
> 100 µM: TGI (HOP-92 NSCLC) | TGI (UO-31 renal) | TGI (UACC-62 melanoma) | TGI (KM12 colon) | TGI (SNB-19 CNS) | TGI (OVCAR-8 ovarian) | TGI (UACC-257 melanoma) | TGI (SK-MEL-5 melanoma)

O=C(Nc1cccc(Cl)c1)Nc1cc(C(F)(F)F)ccc1Cl
6.98 µM: TGI (KM12 colon)
11.5 µM: TGI (HCT-15 colon)
7.75 µM: TGI (OVCAR-8 ovarian)
19.6 µM: TGI (SNB-19 CNS)
13.7 µM: TGI (UACC-62 melanoma)
inactive: GI50 (UACC-62 melanoma) 2.8 µM | GI50 (KM12 colon) 2.65 µM | GI50 (SNB-19 CNS) 3.81 µM | GI50 (OVCAR-8 ovarian) 3.16 µM | GI50 (DU-145 prostate) 2.95 µM | GI50 (HCT-15 colon) 2.66 µM | GI50 (UACC-257 melanoma) 2.66 µM | GI50 (SK-MEL-5 melanoma) 1.92 µM
5.84 µM: TGI (UACC-257 melanoma)
3.51 µM: TGI (SK-MEL-5 melanoma)
10.2 µM: TGI (DU-145 prostate)

CCOC1=C2N=C(C(CC)c3ccc(F)cc3)N=C2C(=O)c2ccccc21 (configuration not stated)
> 56.5 µM: TGI (KM12 colon)
> 100 µM: TGI (SNB-19 CNS) | TGI (OVCAR-8 ovarian) | TGI (HCT-15 colon)
29.7 µM: TGI (UACC-62 melanoma)
26.9 µM: TGI (SK-MEL-5 melanoma)
66.3 µM: TGI (HOP-92 NSCLC)
49 µM: TGI (UACC-257 melanoma)
55.5 µM: TGI (UO-31 renal)
